The results in this text go back to patent US20250270170A1, “2,3-DIMETHOXY-5-METHYL-1,4-BENZOQUINONE ALKYL ALCOHOL DERIVATIVE AND USE THEREOF” (BEIJING ANJIANXI BIO-MEDICAL TECHNOLOGY CO., LTD., priority 2021, published 2025).

In experiment [1] the test system is A549 cells. The experiment is described as follows: Cell EDU proliferation assay, A549. The class given is cell-based, human. The note with it: 150 μM. How it is done:
The compound of formula (I) at a concentration of 150 μM was co-cultured with the cells for 42 h, and then the FBS concentration in the FBS stimulation well was increased to 20%. The cells were cultured for another 6 h, and then detected using a Cell-Light EDUApollo567 kit.
(1) Cells in the logarithmic growth phase were taken, and inoculated into a 24-well culture plate at 1×10^4 cells per well. The culture plate was cultured in a 37° C. incubator under the condition of 5% CO2, and drug was added according to the assay design when the cells adhered to the wall.
(2) After the drug treatment, the Cell-Light EDU Apollo567 kit was taken out. The reagent A in the kit was diluted with 1640 complete culture medium at a ratio of 1000:1 to prepare a 50 μM EDU culture medium, 300 μl of which was configured to each well of the 24-well plate. The 24-well plate was taken out from the incubator, and the original culture medium was aspirated with a vacuum aspirator. […]
(12) 150 μl of PBS was added to each well to wash once, and the PBS was discarded. Then, 200 μl of PBS was added, and the plate was placed on an inverted fluorescence microscope to take pictures. 6 fields of view were taken for each well under a 200× field of view, and the proportion of EDU-positive cells among 100 cells was calculated. […]

For experiment [2], the system named is cisplatin-induced acute kidney damage in mice. Nature of the experiment: Example 11: kidney weight and kidney coefficient in cisplatin-induced acute kidney damage model. The class given is in vivo, C57BL/6J mice. The note with it: for Kidney coefficient (kidney weight/body weight), x (mean) / Kidney weight after the assay, x (mean): group mean. The method, then:
42 male C57BL/6J mice (age: 6 to 8 weeks, body weight 18-20 g, certificate number: 11400700238365) were purchased from Si Pei Fu (Beijing) Biotechnology Co., Ltd., and raised in an SPF-grade animal room of the Institute of Materia Medica, Chinese Academy of Medical Sciences, at a temperature of 20 to 25° C., a relative humidity of 40% to 70%, and a cycle of 12 hours of light and 12 hours of dark. The animals had free access to water and food. After 3 days of normal feeding, mice with good physical conditions after the veterinary examination were selected for this assay. Before grouping, a marker was used to mark on the base of the animals' tail. After grouping, each animal was marked with an ear cutout (7 mice in each group).
Assay animals: 42 7-week-old male C57 mice were used for animal testing after an adaptive feeding.
Group 1: blank control group;
The preparation of the R01 formulation administration test solution was the same as that in Example 5: an appropriate amount of the R01 formulation was weighed according to the three dosages set in the assay, respectively, and an appropriate volume of 0.5% CMC-Na aqueous solution was added. The mixture was vortexed and sonicated until mixed evenly, to give the administration test solutions with concentrations of […], respectively, which were ready for use.
Animal testing period: 7 days (excluding adaptive feeding), hereinafter referred to as: D1-D7.
1. The first group was a solvent control group: N=7, all mice were males (the same below); • a) 0.5% solution of sodium carboxymethyl cellulose was gavagely administered from D1 to D6 (twice a day for each animal, with an interval of 8 hours between the morning and the afternoon). • b) Physiological saline was intraperitoneally injected in one-time on D4. • c) On D7, blood was collected from the orbit for euthanasia (300 ul of serum was extracted), the left kidney was fixed in formaldehyde, and the right kidney was preserved in liquid nitrogen (WB study may be carried out).
3) Each animal was weighed before euthanasia, and the weight was recorded. Two kidneys were weighed as soon as possible after euthanasia, and the weight was recorded. Then, the two kidneys were quickly fixed or cryopreserved, and the kidney coefficient of the mouse was calculated (kidney weight/mouse weight).
The body weight of the animals when being grouped for administration in each group was recorded. The body weight and the kidney weight at the end of the assay were also recorded, and the kidney coefficient was calculated. The creatinine and urea nitrogen values in the blood samples sent for testing were recorded. The kidneys were stained with HE and PAS, and the slides were scanned. A report was issued after the pathological analysis.
The assay data were calculated and processed statistically using Microsoft Office Excel 2007 software. Unless otherwise specified, the data were expressed as mean±standard error (Mean±SE), and t-test was used for comparison between two groups.

[3] abbreviates: individual animals No. 1-7, cisplatin model, R01 6 mg/kg, listed as R01, 6 mg/kg.
[4] abbreviates: individual animals No. 1-7, cisplatin model, R01 18 mg/kg, listed as R01, 18 mg/kg.
[5] abbreviates: individual animals No. 1-7, cisplatin model, R01 36 mg/kg, listed as R01, 36 mg/kg.

The structures appear in SMILES notation. Several values for one entry are separate records, joined by “and”; a condition that tells them apart may be missing. Equal values may be shown once.

In the case of `COC1=C(OC)C(=O)C(CCCCCCCCCCOC(=O)Cc2c(C)n(C(=O)c3ccc(Cl)cc3)c3ccc(OC)cc23)=C(C)C1=O` [compound of formula (I)], in experiment [1] (48 hours, vs CTL (0 μM)), the “proportion of proliferating cells (EDU)” value is “significantly reduced”. For the same molecule, in experiment [1] (FBS increased to 20% for last 6 h), the “cell proliferation under FBS stimulation (EDU)” value is recorded as “can inhibit the cell proliferation effect”. Further, the “Kidney coefficient (kidney weight/body weight), x (mean)” value in experiment [2] (cisplatin model, R01 6 mg/kg) came out at 0.014; in experiment [2] (cisplatin model, R01 18 mg/kg) it was 0.013; in experiment [2] (cisplatin model, R01 36 mg/kg), 0.013. For the same molecule, the “Kidney weight after the assay, x (mean)” value in experiment [2] (cisplatin model, R01 6 mg/kg) is listed as 0.223 g; in experiment [2] (cisplatin model, R01 18 mg/kg), 0.211 g; in experiment [2] (cisplatin model, R01 36 mg/kg), 0.207 g. Also, the “Kidney coefficient (kidney weight/body weight)” value was 0.013 (3×) and 0.015 and 0.014 (2×) and 0.018 in experiment [2] (setting [3]); 0.014 (3×) and 0.013 (4×) in experiment [2] (setting [4]); 0.012 and 0.014 (4×) and 0.013 (2×) in experiment [2] (setting [5]); “equivalent to that of the blank control group” in experiment [2] (with cisplatin 10 mg/kg, amifostine 50 mg/kg i.p., R01 6, 18, 36 mg/kg bid). Further, the “Kidney weight after the assay” value in experiment [2] (setting [3]) is 0.207 g and 0.212 g and 0.209 g and 0.224 g and 0.228 g and 0.214 g and 0.270 g; in experiment [2] (setting [4]), 0.214 g and 0.211 g (2×) and 0.206 g and 0.215 g and 0.210 g and 0.213 g; in experiment [2] (setting [5]) it was 0.192 g and 0.216 g and 0.203 g and 0.228 g and 0.213 g and 0.189 g and 0.206 g.
